Patent US4064255A, “Compositions containing new indole derivatives and their use in pharmacology” (Mar-Pha Societe d'Etudes et d'Exploitation de Marques, priority 1975, dated 1977)
Where two headings read alike, the source gives them in different places.

Columns and labels:
[1] = system: serotonin (5HT) recapture by brain synaptosomes; test: in vitro inhibition of serotonin uptake (recapture) by rat-brain synaptosomes; assay type: biochemical; settings: for selectivity of action on cerebral serotonin: in words; for IC50: rat-brain synaptosomes, 5HT, read-out: I50, dose inhibiting 50% of recapture by brain synaptosomes of serotonin (5HT)
Excerpt: (§1) The entire disclosure of Kannengiesser et al is relied on in this connection and incorporated herein by reference.

[2] = acute toxicity in mice (LD50); assay type: in vivo, male mouse CD1 (Charles River); settings: mouse, in vivo, male CD1 mice, three days' observation
Method: (§2) The toxicity and acute symptomatologies of the compounds of the invention were determined in the male mouse CD1 (Charles River) in intravenous and oral manner. The LD50 were computed following three days' observation by the cumulative method of Reed & Muench (Am. J. Hyg. 27, 493, 1938).

[3] = system: dopamine (DA) recapture by brain synaptosomes; test: in vitro inhibition of dopamine uptake (recapture) by rat-brain synaptosomes; assay type: biochemical; settings: read-out: I50, dose inhibiting 50% of recapture by brain synaptosomes of dopamine (DA)
Excerpt: as §1

[4] = system: noradrenaline (NA) recapture by brain synaptosomes; test: in vitro inhibition of noradrenaline uptake (recapture) by rat-brain synaptosomes; assay type: biochemical; settings: read-out: I50, dose inhibiting 50% of recapture by brain synaptosomes of noradrenaline (NA)
Excerpt: as §1

5-HTP hypermotility = test: potentiation of 5-HTP hypermotility in mice; assay type: in vivo, male mouse CD1 (Charles River); settings: 30 min after 5-HTP 150 mg/kg i.p., motility 45th-75th minute
Method: The effectiveness of the compounds of the present invention in blocking serotonine uptake also was shown using the potentiation test of 5-hydroxy tryptophane (5-HTP).
1, 11-1972. This test consists of looking for the potentiation of the hypermotility induced by 5-HTP. for high dosages the precursor will induce very characteristic hypermotility with jumps.
The animals are divided into groups of 25 mice and treated i.p. with 150 mg/kg of 5-HTP. The products to be tested are administered sub-cutaneously, 30 minutes after the 5-HTP, the control group receiving only the administrative vehicle. The overall motility of the animals is measured from the 45th to the 75th minute after (administration of) the 5-HTP. The results for the treated groups are shown in % increase in motility with respect to the control group.

mice = test: acute toxicity in mice (LD50); assay type: in vivo, male mouse CD1 (Charles River); settings: intravenous, male CD1 mice, three days' observation; 4320 min
Method: as §2

[5] = intravenous, read-out: LD50 I.V.

Row | Compound | selectivity of action on cerebral serotonin [1] | IC50 [1] [µM] | LD50 at 72 h [2, 5] [mg/kg] | LD50 at 72 h ([2]; oral, read-out: LD50 orally) [mg/kg] | IC50 [3] [µM] | IC50 [4] [µM] | Potentiation of 5-HTP hypermotility, % change with respect to controls (5-HTP hypermotility; 5 mg/kg s.c.) | Potentiation of 5-HTP hypermotility, % change with respect to controls (5-HTP hypermotility; 25 mg/kg s.c.) | Potentiation of 5-HTP hypermotility, % change with respect to controls (5-HTP hypermotility; 15 mg/kg s.c.) | LD50 I.V. (mice) [mg/kg]
1 | Cn1cc(CCC2CCNCC2)c2ccccc21 [Example 9, [(METHYL-1 INDOLYL-3)-2 ETHYL]-4 PIPERIDINE] | act more selectively than clomipramine | 0.02 | 44 | 225 | 60 | 60 | +134% | +296% | – | –
2 | c1ccc2c(CCC3CCNCC3)c[nH]c2c1 [Example 10, [(INDOLYL-3)-2 ETHYL]-4 PIPERIDINE] | act more selectively than clomipramine | 0.04 | 60 | 600 | 4 | 8 | +196% | +262% | – | –
3 | CN(C)CCCN1c2ccccc2CCc2ccc(Cl)cc21 [Clomipramine, reference compound] | – | – | 45 | 380 | 5 | 7 | – | – | +190% | –
4 | c1ccc2c(CCCC3CCNCC3)c[nH]c2c1 [Example 13, [(INDOLYL-3)-3 PROPYL]-4 PIPERIDINE] | act more selectively than clomipramine | 0.04 | – | – | 5.5 | 13 | – | – | – | –
5 | c1ccc2c(CC3CCNCC3)c[nH]c2c1 [Example 11, (INDOLYL-3 METHYL) -4 PIPERIDINE] | – | 0.15 | 57 | 225 | 4 | 5 | – | – | – | –
6 | O=C(CC1CCNCC1)c1c[nH]c2ccccc12 [Example 1, INDOLYL-3 (PIPERIDYL-4 METHYL) KETONE] | act more selectively than clomipramine | 0.08 | – | – | 65 | 20 | – | – | – | 47
7 | O=C(CC1CCNCC1)c1c[nH]c2ccc(Cl)cc12 [Example 3, (CHLORO-5 INDOLYL-3) (PIPERIDYL-4 METHYL) KETONE] | – | 0.6 | – | 300 to 900 | 12 | 30 | – | – | – | –
8 | COc1ccc2[nH]cc(C(=O)CC3CCNCC3)c2c1 [Example 2, (METHOXY-5 INDOLYL-3) (PIPERIDYL-4 METHYL) KETONE] | – | 0.65 | 44 | > 900 | 70 | 160 | – | – | – | –
